Reference: patent publication US8853373B2, “Method and reagent for gene sequence analysis” (Hitachi, Ltd., priority 2009, dated 2014)

Legend:
Assay type in all cases: biochemical
[1] = tested on: nucleotides G, C, and A (Sequence GA, Sequence CG, Sequence AG); experiment: Exclusivity of the other nucleotides (G, C, and A), elongation luminescence; settings: CG, AG, luminescence normalized to dCTP, dGTP, dTTP as 1
Experimental: (§1) Incorporation into nucleic acid was evaluated as follows. First, one of the above sequences was used as a target. Next, the primer was made to complementarily bind to the target. Then, an elongation experiment was carried out using the respective nucleic acid substrates for that sample. The synthesized nucleic acid substrate requires an affinity (complementary characteristics) with nucleotide T, and exclusivity of the other nucleotides (G, C, and A). The affinity with nucleotide T was evaluated using the Sequence TG and the primer. The exclusivity of the other nucleotides (G, C, and A) was evaluated using the respective Sequence GA, Sequence CG, and Sequence AG, and the primer. In addition, Sequence 5T was used for the evaluation of an ability of continuous incorporation into nucleotide T.
(§2) A sequencing method using a stepwise chemical reaction is described below. First, 35 μL of ultrapure water, 5 μL of oligo DNA (10 μM) of analysis object (target), and 5 μL of a primer (20 μM) were mixed with 5 μL of a hybridization buffer (10 mM Tris-Acetate, 20 mM Mg-Acetate, pH 7.75) (a sample solution: the final volume was 50 μL). Then, the sample solution was heated at 94° C. for 20 seconds, and reacted at a Tm temperature of the primer for 2 minutes. After that, 0.5 μL, (target: […], primer: […]) of this sample solution, 20 of a luminescence reagent which is designated in Condition 2 of Table 1, and 0.2 μL of a polymerase enzyme (the final concentration: 0.05 U/4) were mixed to prepare a reaction reagent (the final volume was 20.7 μL). To this reaction reagent was added 0.4 μL of 100 μM nucleic acid substrate (the final concentration 2 μM). When nucleic acid elongation occurs, bioluminescence derived from pyrophosphate of the elongation reaction product can be observed. The reaction has a luminescence peak a few seconds after the reaction initiation. […] This luminescence peak value is virtually proportional to the amount of generated pyrophosphate. Measurement of the peak value enables a degree of nucleic acid elongation to be estimated.
Next, with regard to the respective synthetic substrates, the exclusivity of the other nucleotides (G, C, and A) was assessed using each of Sequence GA, Sequence CG, and Sequence AG and the primer. […] In addition, a background luminescence component of the respective substrates was compensated by taking its difference into account in a manner similar to that of the preceding figures.

[2] = tested on: Sequence S1; experiment: Sequence analysis by stepwise chemical reaction (pyrogram), ATP sulfurylase system, Condition 3; settings: Sequence S1 (maximum two consecutive nucleotides); final concentration 2 μM
Experimental: Next, by using the developed substrates, nucleotide sequences were analyzed. FIG. 15 is pyrograms showing the results of sequence analysis using synthetic nucleotide A3d as a substitute for dATP in a sequencing method using a stepwise chemical reaction. The analyzed oligo Sequence S1 and a primer […] are described below.
Of note is that the Sequence P2 represents a primer sequence. This primer can complementarily bind to the underlined portion of the above Sequence S1. In addition, reagent conditions used for the sequence analysis were designated in Condition 3 of Table 1.
At the bottom of each diagram, the injected nucleic acid substrate species (the injected nucleotide type) were designated. Among the species, the substrate represented by “A” is A3d in (1) and dATPαS in (2), respectively. Also, at the top, nucleotide types which were incorporated in this oligo were designated. Specifically, the nucleotide types represent a complementary strand sequence that is an upstream sequence of the portion (the underlined portion of the Sequence S1) which complementarily binds to the primer P2. […] In addition, the broken lines represent standard values which convert the amount of the resulting luminescence into the number of nucleotides. For example, with regard to the above “CC”, the amount of luminescence equivalent to two nucleotides was observed. […]

[3] = tested on: 5 consecutive nucleotides of T (Sequence 5T); experiment: Ability of incorporation into consecutive nucleotides of T (Sequence 5T), three consecutive injections; settings: for Continuous incorporation into 5 consecutive T (luminescence derived from incomplete elongation): three injections
Experimental: as §1, §2
Next, by using Sequence 5T, the ability of incorporation of the respective synthetic substrates into consecutive nucleotides of T was evaluated by the following procedure. The reaction reagent was prepared by using Sequence 5T as a target oligo in the same manner as in the case of evaluation of elongation of one nucleotide as described before. In this case, a target oligo 111 and a primer 112 form a complementary strand binding as depicted in FIG. 11(1). Due to the above, when dATP is dispensed into this reaction reagent as a substrate, five molecules of the substrate are consecutively elongated per target molecule as a primer having the substrate at the 3′ end 113, thereby releasing five molecules of pyrophosphate. If the elongation for all the five nucleotides is not completed, a portion of the nucleotide T remains in a single-stranded state. Because of this, when substrate dATP is dispensed again, the portion is elongated only in the case where a portion of incomplete elongation remains. Therefore, the release of pyrophosphate can be detected as luminescence. […] In addition, substrate dCTP, which is complementary to nucleotide G 114, was subsequently dispensed twice to detect luminescence. […]

SMILES	Exclusivity of the other nucleotides (G, C, and A) [1]	Sequence analysis result as substitute for dATP [2]	Rate of Incomplete Elongation after the First Injection (%) ([3]; 5 consecutive nucleotides, final concentration 4 μM, E1 = luminescence of 2nd and 3rd injections / total of 1st to 3rd)	Rate of Incomplete Elongation after the Second Injection (%) ([3]; 5 consecutive nucleotides, final concentration 4 μM, E2 = luminescence of 3rd injection / total of 1st to 3rd)	Continuous incorporation into 5 consecutive T (luminescence derived from incomplete elongation) ([3]; final concentration 2 μM, then dCTP)	Continuous incorporation into 5 consecutive T (luminescence derived from incomplete elongation) ([3]; final concentration 4 μM (substrate amount doubled))
Nc1ncnc2c1c(/C=C/C(=O)NCCc1ccncc1)cn2[C@H]1CC(O)[C@@H](COP(=O)(O)OP(=O)(O)OP(=O)(O)O)O1 (stereo partly shown) [A3d]	excellent exclusivity	can be used for a nucleotide sequence analysis	–	–	–	–
Nc1ncnc2c1ncn2[C@H]1C[C@H](O)[C@@H](COP(O)(=S)OP(=O)(O)OP(=O)(O)O)O1 (stereo partly shown) [dATPαS]	–	can be used for a nucleotide sequence analysis	36.8 ± 7.8%	13.6 ± 5.1%	luminescence derived from incomplete elongation was detected even at the third injection	luminescence derived from incomplete elongation was detected at the third injection
